The kinase profiling compilation of Christmann-Franck et al. (2016)
Values belong to the molecule of their own block, whether it stands above or below them.

Experiments:
Test in all cases: radiometric filter-binding kinase assay
BRSK1 (human) = BRSK1 (human) (UniProt Q8TDC3)
BRSK2 (human) = BRSK2 (human) (UniProt Q8IWQ3)
CAMKK2 (human) = CAMKK2 (human) (UniProt Q96RR4)
DAPK1 (human) = DAPK1 (human) (UniProt P53355)
DYRK1A (human) = DYRK1A (human) (UniProt Q13627)
EEF2K (human) = EEF2K (human) (UniProt O00418)
EPHB4 (human) = EPHB4 (human) (UniProt P54760)
ERBB4 (human) = ERBB4 (human) (UniProt Q15303)
FGFR1 (human) = FGFR1 (human) (UniProt P11362)
GSK3B (human) = GSK3B (human) (UniProt P49841)
HIPK3 (human) = HIPK3 (human) (UniProt Q9H422)
IGF1R (human) = IGF1R (human) (UniProt P08069)
IKBKE (human) = IKBKE (human) (UniProt Q14164)
MAP2K2 (human) = MAP2K2 (human) (UniProt P36507)
MAP2K6 (human) = MAP2K6 (human) (UniProt P52564)
MAP3K5 (human) = MAP3K5 (human) (UniProt Q99683)
MAPK12 (human) = MAPK12 (human) (UniProt P53778)
Chain of MAPK12 (human) (P53778 whole entry, looked up): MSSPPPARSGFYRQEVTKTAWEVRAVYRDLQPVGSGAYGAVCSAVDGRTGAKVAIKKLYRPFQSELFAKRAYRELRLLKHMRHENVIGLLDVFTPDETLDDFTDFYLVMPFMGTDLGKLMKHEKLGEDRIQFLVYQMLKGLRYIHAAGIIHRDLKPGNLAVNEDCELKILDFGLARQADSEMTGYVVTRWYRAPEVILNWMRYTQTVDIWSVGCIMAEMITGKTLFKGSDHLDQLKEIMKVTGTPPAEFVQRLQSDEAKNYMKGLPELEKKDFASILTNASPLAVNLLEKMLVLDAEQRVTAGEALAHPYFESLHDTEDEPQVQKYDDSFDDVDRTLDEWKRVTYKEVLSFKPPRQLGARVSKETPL

MAPK13 (human) = MAPK13 (human) (UniProt O15264)
Chain of MAPK13 (human) (O15264 whole entry, looked up): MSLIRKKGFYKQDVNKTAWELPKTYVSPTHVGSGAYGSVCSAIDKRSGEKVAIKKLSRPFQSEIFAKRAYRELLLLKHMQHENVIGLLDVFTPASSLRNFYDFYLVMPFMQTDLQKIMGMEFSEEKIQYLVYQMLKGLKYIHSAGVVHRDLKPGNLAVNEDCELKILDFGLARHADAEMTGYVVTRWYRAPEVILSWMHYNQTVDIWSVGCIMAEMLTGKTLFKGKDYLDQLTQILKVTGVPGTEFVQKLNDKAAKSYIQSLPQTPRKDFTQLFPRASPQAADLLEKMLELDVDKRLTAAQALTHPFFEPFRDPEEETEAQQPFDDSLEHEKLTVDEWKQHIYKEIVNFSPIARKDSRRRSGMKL

MAPK3 (human) = MAPK3 (human) (UniProt P27361)
Chain of MAPK3 (human) (P27361 whole entry, looked up): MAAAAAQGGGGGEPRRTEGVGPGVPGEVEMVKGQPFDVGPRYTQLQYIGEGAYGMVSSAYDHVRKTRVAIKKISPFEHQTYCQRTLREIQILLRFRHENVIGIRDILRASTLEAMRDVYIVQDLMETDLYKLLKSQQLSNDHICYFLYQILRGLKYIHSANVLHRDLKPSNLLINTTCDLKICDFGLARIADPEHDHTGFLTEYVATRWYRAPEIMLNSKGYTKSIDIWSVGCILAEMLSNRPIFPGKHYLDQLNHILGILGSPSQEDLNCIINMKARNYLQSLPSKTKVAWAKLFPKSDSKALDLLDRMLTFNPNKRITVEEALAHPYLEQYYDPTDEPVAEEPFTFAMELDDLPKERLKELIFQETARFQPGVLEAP

MAPK9 (human) = MAPK9 (human) (UniProt P45984)
MAPKAPK2 (human) = MAPKAPK2 (human) (UniProt P49137)
Chain of MAPKAPK2 (human) (P49137 whole entry, looked up): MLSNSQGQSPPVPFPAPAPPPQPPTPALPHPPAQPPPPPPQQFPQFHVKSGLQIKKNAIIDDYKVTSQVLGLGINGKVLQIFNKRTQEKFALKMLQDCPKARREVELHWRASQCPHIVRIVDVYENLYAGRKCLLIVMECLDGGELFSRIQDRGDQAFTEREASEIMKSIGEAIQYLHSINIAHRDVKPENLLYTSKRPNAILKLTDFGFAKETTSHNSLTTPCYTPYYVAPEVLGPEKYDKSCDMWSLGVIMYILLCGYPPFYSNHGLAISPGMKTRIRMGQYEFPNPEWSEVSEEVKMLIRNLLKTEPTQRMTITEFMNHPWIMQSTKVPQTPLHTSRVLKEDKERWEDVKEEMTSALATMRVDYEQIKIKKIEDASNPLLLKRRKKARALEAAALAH

MAPKAPK5 (human) = MAPKAPK5 (human) (UniProt Q8IW41)
MARK1 (human) = MARK1 (human) (UniProt Q9P0L2)
MELK (human) = MELK (human) (UniProt Q14680)
Chain of MELK (human) (Q14680 whole entry, looked up): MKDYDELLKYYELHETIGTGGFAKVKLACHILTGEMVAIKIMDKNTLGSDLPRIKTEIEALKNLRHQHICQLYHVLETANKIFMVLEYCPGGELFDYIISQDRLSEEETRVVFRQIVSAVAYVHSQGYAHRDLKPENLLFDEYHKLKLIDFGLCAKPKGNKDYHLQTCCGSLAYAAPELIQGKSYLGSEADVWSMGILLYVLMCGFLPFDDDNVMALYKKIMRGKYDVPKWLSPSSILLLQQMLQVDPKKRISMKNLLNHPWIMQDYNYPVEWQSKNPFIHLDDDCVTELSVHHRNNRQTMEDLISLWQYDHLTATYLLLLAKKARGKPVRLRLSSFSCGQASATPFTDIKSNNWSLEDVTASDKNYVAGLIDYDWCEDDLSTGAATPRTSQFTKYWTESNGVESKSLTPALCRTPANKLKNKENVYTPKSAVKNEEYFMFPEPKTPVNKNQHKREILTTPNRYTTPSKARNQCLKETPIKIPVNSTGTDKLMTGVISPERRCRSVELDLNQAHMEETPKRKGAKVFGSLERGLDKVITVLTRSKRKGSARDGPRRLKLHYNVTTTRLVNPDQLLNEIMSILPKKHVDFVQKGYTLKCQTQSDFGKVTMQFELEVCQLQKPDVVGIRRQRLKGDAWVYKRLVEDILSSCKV

MKNK1 (human) = MKNK1 (human) (UniProt Q9BUB5)
PAK7 (human) = PAK7 (human) (UniProt Q9P286)
PHKG1 (human) = PHKG1 (human) (UniProt Q16816)
PIM1 (human) = PIM1 (human) (UniProt P11309)
PIM3 (human) = PIM3 (human) (UniProt Q86V86)
PRKAA1 or PRKAA2 (rat) = settings: accession and sequence are those of the human protein
PRKACA (human) = PRKACA (human) (UniProt P17612)
PRKCZ (human) = PRKCZ (human) (UniProt Q05513)
Chain of PRKCZ (human) (Q05513 whole entry, looked up): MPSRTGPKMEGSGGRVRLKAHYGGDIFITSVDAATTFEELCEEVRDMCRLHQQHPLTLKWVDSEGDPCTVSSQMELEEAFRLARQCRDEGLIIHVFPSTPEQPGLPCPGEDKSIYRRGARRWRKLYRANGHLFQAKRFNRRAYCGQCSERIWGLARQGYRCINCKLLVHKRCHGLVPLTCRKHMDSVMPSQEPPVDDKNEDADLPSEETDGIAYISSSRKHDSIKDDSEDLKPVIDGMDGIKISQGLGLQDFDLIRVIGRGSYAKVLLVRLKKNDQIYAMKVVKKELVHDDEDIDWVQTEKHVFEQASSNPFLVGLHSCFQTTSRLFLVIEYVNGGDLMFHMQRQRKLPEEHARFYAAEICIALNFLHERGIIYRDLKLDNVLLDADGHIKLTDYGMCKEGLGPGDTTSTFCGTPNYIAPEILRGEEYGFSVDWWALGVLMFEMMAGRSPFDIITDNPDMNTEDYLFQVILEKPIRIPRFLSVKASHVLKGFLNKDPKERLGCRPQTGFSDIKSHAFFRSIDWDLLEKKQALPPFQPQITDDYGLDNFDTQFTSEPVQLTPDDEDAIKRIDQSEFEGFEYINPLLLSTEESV

[1] = system: SGK1 (human), O00141 [S422D]
STK3 (human) = STK3 (human) (UniProt Q13188)
SYK (human) = SYK (human) (UniProt P43405)
PIM2 (human) = PIM2 (human) (UniProt Q9P1W9)

Chain of DAPK1 (human) (P53355 whole entry, looked up): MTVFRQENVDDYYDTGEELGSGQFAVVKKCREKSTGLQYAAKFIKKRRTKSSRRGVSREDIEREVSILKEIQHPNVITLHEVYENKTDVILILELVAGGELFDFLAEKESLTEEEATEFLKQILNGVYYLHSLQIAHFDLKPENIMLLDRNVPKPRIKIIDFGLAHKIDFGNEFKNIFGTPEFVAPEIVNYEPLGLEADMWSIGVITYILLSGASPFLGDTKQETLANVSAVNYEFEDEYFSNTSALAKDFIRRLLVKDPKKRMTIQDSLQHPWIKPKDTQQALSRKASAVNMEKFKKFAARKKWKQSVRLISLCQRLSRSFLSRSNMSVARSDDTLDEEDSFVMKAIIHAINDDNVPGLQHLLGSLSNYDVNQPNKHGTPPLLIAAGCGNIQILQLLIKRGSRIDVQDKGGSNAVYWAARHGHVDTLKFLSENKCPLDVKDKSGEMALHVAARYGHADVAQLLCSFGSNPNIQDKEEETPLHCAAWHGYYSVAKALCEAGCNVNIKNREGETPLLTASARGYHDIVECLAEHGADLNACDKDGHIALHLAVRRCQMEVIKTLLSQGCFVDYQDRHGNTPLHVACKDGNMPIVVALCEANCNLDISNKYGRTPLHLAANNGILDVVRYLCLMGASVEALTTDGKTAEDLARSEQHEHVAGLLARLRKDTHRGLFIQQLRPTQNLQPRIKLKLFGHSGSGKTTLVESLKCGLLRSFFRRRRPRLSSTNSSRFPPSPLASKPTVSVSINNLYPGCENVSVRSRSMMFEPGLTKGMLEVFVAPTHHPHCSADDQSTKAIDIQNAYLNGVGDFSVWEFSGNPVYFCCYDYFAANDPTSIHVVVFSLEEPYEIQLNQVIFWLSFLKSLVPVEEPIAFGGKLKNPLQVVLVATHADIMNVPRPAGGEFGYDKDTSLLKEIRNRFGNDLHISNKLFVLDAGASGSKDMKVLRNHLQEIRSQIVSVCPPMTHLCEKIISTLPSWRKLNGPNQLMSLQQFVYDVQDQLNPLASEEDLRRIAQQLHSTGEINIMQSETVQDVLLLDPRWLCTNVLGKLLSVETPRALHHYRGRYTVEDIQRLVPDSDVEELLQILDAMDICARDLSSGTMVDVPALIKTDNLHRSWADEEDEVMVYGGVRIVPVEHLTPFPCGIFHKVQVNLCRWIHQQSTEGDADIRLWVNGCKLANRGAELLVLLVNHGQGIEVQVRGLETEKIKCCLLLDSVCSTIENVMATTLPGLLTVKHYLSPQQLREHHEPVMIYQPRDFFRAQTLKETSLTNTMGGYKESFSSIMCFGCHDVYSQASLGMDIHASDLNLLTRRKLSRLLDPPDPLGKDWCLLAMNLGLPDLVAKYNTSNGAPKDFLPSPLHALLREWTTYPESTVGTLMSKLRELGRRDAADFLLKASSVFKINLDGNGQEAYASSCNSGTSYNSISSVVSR
Chain of BRSK2 (human) (Q8IWQ3 whole entry, looked up): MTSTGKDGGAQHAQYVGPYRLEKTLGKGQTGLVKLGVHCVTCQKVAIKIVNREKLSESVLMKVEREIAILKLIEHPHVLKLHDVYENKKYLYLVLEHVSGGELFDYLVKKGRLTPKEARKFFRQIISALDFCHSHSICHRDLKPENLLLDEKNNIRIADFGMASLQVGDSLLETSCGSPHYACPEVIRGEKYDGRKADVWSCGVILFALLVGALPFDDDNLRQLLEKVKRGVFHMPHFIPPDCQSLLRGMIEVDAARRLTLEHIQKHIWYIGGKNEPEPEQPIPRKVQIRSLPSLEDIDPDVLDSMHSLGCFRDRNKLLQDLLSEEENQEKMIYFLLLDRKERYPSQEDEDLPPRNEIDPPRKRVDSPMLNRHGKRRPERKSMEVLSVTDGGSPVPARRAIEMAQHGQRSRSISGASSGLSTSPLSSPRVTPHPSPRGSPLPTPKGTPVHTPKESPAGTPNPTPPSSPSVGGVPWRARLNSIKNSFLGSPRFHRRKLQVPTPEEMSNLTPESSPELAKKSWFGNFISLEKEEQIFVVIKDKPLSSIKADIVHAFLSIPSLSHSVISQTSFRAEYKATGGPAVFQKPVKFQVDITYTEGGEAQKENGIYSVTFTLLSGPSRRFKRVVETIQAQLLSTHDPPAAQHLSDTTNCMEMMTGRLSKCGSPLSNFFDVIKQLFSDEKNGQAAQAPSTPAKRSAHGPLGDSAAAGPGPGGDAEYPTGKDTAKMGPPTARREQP

- residual activity (BRSK1 (human); compound 1.0 µM): 97%
- residual activity (BRSK1 (human); compound 10.0 µM): 112%
- residual activity (BRSK2 (human); compound 1.0 µM): 94%
- residual activity (BRSK2 (human); compound 10.0 µM): 96%
- residual activity (CAMKK2 (human); compound 1.0 µM): 92%
- residual activity (CAMKK2 (human); compound 10.0 µM): 94%
- residual activity (DAPK1 (human); compound 1.0 µM): 96%
- residual activity (DAPK1 (human); compound 10.0 µM): 90%
- residual activity (DYRK1A (human); compound 1.0 µM): 94%
- residual activity (DYRK1A (human); compound 10.0 µM): 104%
- residual activity (EEF2K (human); compound 1.0 µM): 83%
- residual activity (EEF2K (human); compound 10.0 µM): 93%
- residual activity (EPHB4 (human); compound 1.0 µM): 90%
- residual activity (EPHB4 (human); compound 10.0 µM): 99%
- residual activity (ERBB4 (human); compound 10.0 µM): 87%
- residual activity (FGFR1 (human); compound 1.0 µM): 140%
- residual activity (FGFR1 (human); compound 10.0 µM): 83%
- residual activity (GSK3B (human); compound 1.0 µM): 70%
- residual activity (GSK3B (human); compound 10.0 µM): 88%
- residual activity (HIPK3 (human); compound 1.0 µM): 101%
- residual activity (HIPK3 (human); compound 10.0 µM): 107%
- residual activity (IGF1R (human); compound 1.0 µM): 88%
- residual activity (IGF1R (human); compound 10.0 µM): 113%
- residual activity (IKBKE (human); compound 1.0 µM): 103%
- residual activity (IKBKE (human); compound 10.0 µM): 111%
- residual activity (MAP2K2 (human); compound 1.0 µM): 54%
- residual activity (MAP2K2 (human); compound 10.0 µM): 16%
- residual activity (MAP2K6 (human); compound 1.0 µM): 93%
- residual activity (MAP2K6 (human); compound 10.0 µM): 102%
- residual activity (MAP3K5 (human); compound 1.0 µM): 108%
- residual activity (MAP3K5 (human); compound 10.0 µM): 116%
- residual activity (MAPK12 (human); compound 1.0 µM): 91%
- residual activity (MAPK12 (human); compound 10.0 µM): 98%
- residual activity (MAPK13 (human); compound 1.0 µM): 85%
- residual activity (MAPK13 (human); compound 10.0 µM): 97%
- residual activity (MAPK3 (human); compound 1.0 µM): 88%
- residual activity (MAPK3 (human); compound 10.0 µM): 106%
- residual activity (MAPK9 (human); compound 1.0 µM): 90%
- residual activity (MAPK9 (human); compound 10.0 µM): 105%
- residual activity (MAPKAPK2 (human); compound 1.0 µM): 103%
- residual activity (MAPKAPK2 (human); compound 10.0 µM): 102%
- residual activity (MAPKAPK5 (human); compound 1.0 µM): 98%
- residual activity (MAPKAPK5 (human); compound 10.0 µM): 99%
- residual activity (MARK1 (human); compound 1.0 µM): 85%
- residual activity (MARK1 (human); compound 10.0 µM): 85%
- residual activity (MELK (human); compound 1.0 µM): 81%
- residual activity (MELK (human); compound 10.0 µM): 97%
- residual activity (MKNK1 (human); compound 1.0 µM): 103%
- residual activity (MKNK1 (human); compound 10.0 µM): 104%
- residual activity (PAK7 (human); compound 1.0 µM): 104%
- residual activity (PAK7 (human); compound 10.0 µM): 85%
- residual activity (PHKG1 (human); compound 1.0 µM): 95%
- residual activity (PHKG1 (human); compound 10.0 µM): 90%
- residual activity (PIM1 (human); compound 1.0 µM): 92%
- residual activity (PIM1 (human); compound 10.0 µM): 73%
- residual activity (PIM3 (human); compound 1.0 µM): 78%
- residual activity (PIM3 (human); compound 10.0 µM): 72%
- residual activity (PRKAA1 or PRKAA2 (rat); compound 1.0 µM): 110%
- residual activity (PRKAA1 or PRKAA2 (rat); compound 10.0 µM): 107%
- residual activity (PRKACA (human); compound 1.0 µM): 87%
- residual activity (PRKACA (human); compound 10.0 µM): 97%
- residual activity (PRKCZ (human); compound 1.0 µM): 97%
- residual activity (PRKCZ (human); compound 10.0 µM): 104%
- residual activity ([1]; compound 1.0 µM): 69%
- residual activity ([1]; compound 10.0 µM): 74%
- residual activity (STK3 (human); compound 1.0 µM): 83%
- residual activity (STK3 (human); compound 10.0 µM): 70%
- residual activity (SYK (human); compound 1.0 µM): 111%
SMILES: O=C(NOC[C@H](O)CO)c1ccc(F)c(F)c1Nc1ccc(I)cc1Cl

- residual activity (BRSK1 (human); compound 1.0 µM): 109%
- residual activity (BRSK1 (human); compound 5.0 µM): 108%
- residual activity (BRSK2 (human); compound 1.0 µM): 109%
- residual activity (DAPK1 (human); compound 1.0 µM): 102%
- residual activity (DAPK1 (human); compound 5.0 µM): 107%
- residual activity (DYRK1A (human); compound 1.0 µM): 120%
- residual activity (DYRK1A (human); compound 5.0 µM): 101%
- residual activity (EEF2K (human); compound 1.0 µM): 107%
- residual activity (EEF2K (human); compound 5.0 µM): 91%
- residual activity (EPHB4 (human); compound 1.0 µM): 124%
- residual activity (ERBB4 (human); compound 1.0 µM): 98%
- residual activity (ERBB4 (human); compound 5.0 µM): 90%
- residual activity (FGFR1 (human); compound 1.0 µM): 106%
- residual activity (FGFR1 (human); compound 5.0 µM): 99%
- residual activity (GSK3B (human); compound 1.0 µM): 106%
- residual activity (GSK3B (human); compound 5.0 µM): 105%
- residual activity (HIPK3 (human); compound 1.0 µM): 110%
- residual activity (HIPK3 (human); compound 5.0 µM): 122%
- residual activity (IGF1R (human); compound 1.0 µM): 120%
- residual activity (IGF1R (human); compound 5.0 µM): 109%
- residual activity (IKBKE (human); compound 1.0 µM): 112%
- residual activity (IKBKE (human); compound 5.0 µM): 108%
- residual activity (MAP2K2 (human); compound 5.0 µM): 109%
- residual activity (MAP2K6 (human); compound 1.0 µM): 96%
- residual activity (MAP2K6 (human); compound 5.0 µM): 92%
- residual activity (MAP3K5 (human); compound 1.0 µM): 98%
- residual activity (MAP3K5 (human); compound 5.0 µM): 125%
- residual activity (MAPK12 (human); compound 1.0 µM): 108%
- residual activity (MAPK12 (human); compound 5.0 µM): 115%
- residual activity (MAPK13 (human); compound 1.0 µM): 115%
- residual activity (MAPK13 (human); compound 5.0 µM): 113%
- residual activity (MAPK3 (human); compound 1.0 µM): 105%
- residual activity (MAPK3 (human); compound 5.0 µM): 103%
- residual activity (MAPK9 (human); compound 1.0 µM): 114%
- residual activity (MAPK9 (human); compound 5.0 µM): 110%
- residual activity (MAPKAPK2 (human); compound 1.0 µM): 72%
- residual activity (MAPKAPK2 (human); compound 5.0 µM): 64%
- residual activity (MARK1 (human); compound 1.0 µM): 100%
- residual activity (MARK1 (human); compound 5.0 µM): 94%
- residual activity (MELK (human); compound 1.0 µM): 138%
- residual activity (MELK (human); compound 5.0 µM): 100%
- residual activity (MKNK1 (human); compound 1.0 µM): 116%
- residual activity (MKNK1 (human); compound 5.0 µM): 94%
- residual activity (PAK7 (human); compound 1.0 µM): 117%
- residual activity (PAK7 (human); compound 5.0 µM): 98%
- residual activity (PHKG1 (human); compound 1.0 µM): 116%
- residual activity (PHKG1 (human); compound 5.0 µM): 108%
- residual activity (PIM1 (human); compound 1.0 µM): 97%
- residual activity (PIM1 (human); compound 5.0 µM): 108%
- residual activity (PIM2 (human); compound 1.0 µM): 110%
- residual activity (PIM2 (human); compound 5.0 µM): 102%
- residual activity (PIM3 (human); compound 1.0 µM): 119%
- residual activity (PIM3 (human); compound 5.0 µM): 121%
- residual activity (PRKAA1 or PRKAA2 (rat); compound 1.0 µM): 97%
- residual activity (PRKAA1 or PRKAA2 (rat); compound 5.0 µM): 98%
- residual activity (PRKACA (human); compound 1.0 µM): 121%
- residual activity (PRKACA (human); compound 5.0 µM): 103%
- residual activity (PRKCZ (human); compound 1.0 µM): 117%
- residual activity (PRKCZ (human); compound 5.0 µM): 98%
- residual activity ([1]; compound 5.0 µM): 115%
- residual activity (STK3 (human); compound 1.0 µM): 118%
- residual activity (STK3 (human); compound 5.0 µM): 125%
- residual activity (SYK (human); compound 1.0 µM): 102%
- residual activity (SYK (human); compound 5.0 µM): 105%
SMILES: C=C1C(=O)OC2C1CC/C(C)=C/CCC1(C)OC21 (configuration not stated)
